Data reported in patent US4094966A, “Iodobenzene derivatives and X-ray contrast media containing the same” (priority 1974, dated 1978).

Assays:
femoral artery = assay: Effect on the femoral rate of flow (peripheral vasodilatation); type: in vivo, mongrels
Method: This test was carried out in Nembutal-anesthetized male or female 7-12 mongrels.
Nembutal was used at a dosage of 30 mg/kg, with Vetranquil pre-medication, (overall intravenous injection of 2.5 mg), respiration was spontaneous.
Rate of flow variations were recorded at the level of the right or left fermoral artery, by means of a Statham electromagnetic sensor.
The injections were made in a collateral of the fermoral artery, downstream of the sensor, by means of a catheter mounted by the retrograde route, so as not to perturb the blood flow.
The injections were made under a constant volume of 1.5 ml administered within 3-5 seconds.
The same volume of an iostonic sodium chloride solution was also injected.

[1] = Viscosity of 28% methylglucamine salt solutions at 37° C; type: physicochemical; conditions: 28% iodine methylglucamine salt solution
Method: Pharmaceutical grade injectable solutions are prepared in the form of the methylgucamine or sodium salt, containing 28, 38 or 48 g iodine per 100 ml (solutions said to contain 28%, 38% and 48% iodine).
It is apparent, from said results, that, contrary to expectations, the compounds of the formula (I) have relatively low solution viscosities.

[2] = Osmolality determination (FISKE osmometer); type: physicochemical; conditions: solutions containing 28% iodine; methylglucamine salts; extrapolation from successive dilutions
Method: Osmolality is determined by extrapolation of the values obtained on successive dilutions of solutions containing 28% or 38% iodine.
Osmolality readings are made with a FISKE Model 230/D/330 D osmometer. This apparatus indicates this measurement as milliosmoles per kg of solution. Its operation is based on the principles of cryoscopy. The determinations were made with solutions containing 28% iodine.

mice = assay: Acute toxicity determination, intravenous toxicity in mice; type: in vivo, mice (Swiss origin, IOPS mice of OFI strain); conditions: 24 hours
Method: Intravenous toxicity determination was effected in Swiss origin, IOPS mice of OFI strain.
Each dosage level was injected to a lot of 10 mice comprising 5 male and 5 female mice.
Injections were made manually, in the caudal vein, at a rate of 2 ml/minute.
Death rate during the 24 hours after injection was recorded.

[3] = Biliary clearance test in cats; type: in vivo; design: scale not given here
Method: This test was conducted in male or female adult cats weighing 3-4 kg.
The test material was injected intravenously, at a dosage of 0.10 g/kg iodine at the level of the internal saphenous vein. Clearance of the material was monitored by X-ray control.
X-ray pictures visualizing the gall bladder and the bladder were taken at the following times: 30 minutes, 1 hour, 2 hours, 3 hours, 4 hours, 5 hours, 6 hours.

rats = assay: Toxicological investigation in rats on intracisternal injection (Melartin's method); type: in vivo
Text: The results of a toxicological investigation effected in rats on intracisternal injection, according to E. Melartin's method (InvestigativeRadiology 1970 5, 1, 13-21) are also set forth below.

[4] = 1.5 ml into collateral of femoral artery, 28% I, Mgl salt
[5] = i.v., 0.10 g I/kg, 28% I, Mgl salt

Row | Structure (SMILES) | Viscosity [1] | Osmolality [2] | Peripheral vasodilatation, femoral rate of flow (femoral artery; [4]) | Acute toxicity in mice, i.v. (mice; 28% I, Mgl salt) | Biliary clearance in cat, i.v. [3, 5] | other results
1 | CNC(=O)c1c(I)c(C(=O)NCC(=O)Nc2c(I)c(C(=O)O)c(I)c(C(=O)NCCO)c2I)c(I)c(N(C)C(C)=O)c1I [Compound 1, 2,4,6-triiodo-3-N-hydroxyethylcarbamyl-5-(2,4,6-triiodo-3-N-methylcarbamyl-5-N-methyl-N-acetylaminobenzoyl)glycylamino-benzoic acid] | 5.4 cps | 510 mosm/kg |  |  |  | Peripheral vasodilatation, femoral rate of flow (femoral artery; in vivo): +; Acute toxicity in mice, i.v. (mice; 38% I, Mgl salt): 11.5 grams I/kg; Biliary clearance in cat, i.v. ([3]; in vivo, iv): ±
2 | CNC(=O)c1c(I)c(NC(=O)CCCNC(=O)c2c(I)c(C(=O)NC)c(I)c(N(C)C(C)=O)c2I)c(I)c(C(=O)O)c1I [Compound 2, 2,4,6-triiodo-3-N-methylcarbamyl-5-(2,4,6-triiodo-3-N-methylcarbamyl-5-N-methylacetamido-benzoyl)-γ-aminobutyrylamino-benzoic acid] | 6.56 cps | 475 mosm/kg | + | 9.5 grams I/kg | 0 | 
3 | CNC(=O)c1c(I)c(NC(C)=O)c(I)c(C(=O)NCC(=O)Nc2c(I)c(C(=O)O)c(I)c(C(=O)NCCO)c2I)c1I [Compound 3, 2,4,6-triiodo-3-N-hydroxyethylcarbamyl-5-(2,4,6-triiodo-3-N-methylcarbamyl-5-acetamidio-benzoyl)-glycylaminobenzoic acid] | 5.72 cps | 550 mosm/kg | + | 9-10 grams I/kg |  | 
4 | CC(=O)Nc1c(I)c(C(=O)NCC(=O)Nc2c(I)c(C(=O)O)c(I)c(C(=O)NCCO)c2I)c(I)c(N(C)C(C)=O)c1I [Compound 6, 2,4,6-triiodo-3-N-hydroxyethylcarbamyl-5-(2,4,6-triiodo-3-acetamido-5-N-methylacetamido-benzoyl)-glycylamino-benzoic acid] | 5.2 cps | 480 mosm/kg | + | 10 grams I/kg | 0 | 
5 | CNC(=O)c1c(I)c(NC(=O)CNC(=O)c2c(I)c(C(=O)NCCO)c(I)c(N(C)C(C)=O)c2I)c(I)c(C(=O)O)c1I [Compound 8, 2,4,6-triiodo-3-N-methylcarbamyl-5-(2,4,6-triiodo-3-N-hydroxyethylcarbamyl-5-N-methylacetamido-benzoyl)glycyl amino-benzoic acid] | 5.5 cps | 535 mosm/kg | ++ | 12 grams I/kg | ± | 
6 | CNC(=O)c1c(I)c(NC(=O)CNC(=O)c2c(I)c(C(=O)NC)c(I)c(N(C)C(C)=O)c2I)c(I)c(C(=O)O)c1I [Compound 9, 2,4,6-triiodo-3-N-methylcarbamyl-5-(2,4,6-triiodo-3-N-methylcarbamyl-5-N-methylacetamido-benzoyl)-glycylamino-benzoic acid] | 5.8 cps | 440 mosm/kg |  |  |  | Peripheral vasodilatation, femoral rate of flow (femoral artery; 1.5 ml into collateral of femoral artery, 38% I, Mgl salt): +; Acute toxicity in mice, i.v. (mice; 38% I, Mgl salt): 11.5 grams I/kg; Biliary clearance in cat, i.v. ([3]; i.v., 0.10 g I/kg, 38% I, Mgl salt): ++
7 | CNC(=O)c1c(I)c(NC(C)=O)c(I)c(C(=O)NCC(=O)N(C)c2c(I)c(C(=O)O)c(I)c(C(=O)NC)c2I)c1I [Compound 14, 2,4,6-triiodo-3-N-methylcarbamyl-5-(2,4,6-triiodo-3-N-methylcarbamyl-5-acetamido-benzoyl)-glycyl-N-methylamino-benzoic acid] | 5.2 cps | 600 mosm/kg | + | 12 grams I/kg | + | 
8 | CNC(=O)c1c(I)c(C(=O)NCCCC(=O)Nc2c(I)c(C(=O)O)c(I)c(C(=O)NCCO)c2I)c(I)c(N(C)C(C)=O)c1I [Compound 24, 2,4,6-triiodo-3-N-hydroxyethylcarbamyl5-(2,4,6-triiodo-3-N-methylcarbamyl-5-N-methylacetamidobenzoyl)-ε-amino-butyrylamino-benzoic acid] | 6 cps | 575 mosm/kg | + | 8.5 grams I/kg | 0 | 
9 | CNC(=O)c1c(I)c(NC(=O)CN(CC(=O)Nc2c(I)c(C(=O)NCCO)c(I)c(C(=O)NCCO)c2I)CC(=O)Nc2c(I)c(C(=O)NCCO)c(I)c(C(=O)NCCO)c2I)c(I)c(C(=O)O)c1I [Compound 31, 2,4,6-triiodo--3-N-methylcarbamyl-5-bis{[2,4,6-triiodo-3,5-bis(N-hydroxyethylcarbamyl)-phenyl]carbamylmethyl} aminoacetamido-benzoic acid] | 10.2 cps | 350 mosm/kg | + | 15 grams I/kg | 0 | Death rate (rats; 56 mg I per rat): 1/10
10 | CC(=O)N(C)c1c(I)c(NC(=O)CN(CC(=O)Nc2c(I)c(C(=O)NCCO)c(I)c(C(=O)NCCO)c2I)CC(=O)Nc2c(I)c(C(=O)NCCO)c(I)c(C(=O)NCCO)c2I)c(I)c(C(=O)O)c1I [Compound 32, 2,4,6-triiodo-3-N-methylacetamido-5-bis{[2,4,6-triiodo-3,5-bis(N-hydroxyethylcarbamyl)-phenyl]carbamylmethyl}aminoacetamido-benzoic acid] |  | 270 mosm/kg | + | 15 grams I/kg | 0 | Death rate (rats; 50 mg I per rat): 0/10
11 | CNC(=O)c1c(I)c(C(=O)O)c(I)c(N(C)C(=O)CN(CC(=O)Nc2c(I)c(C(=O)NCCO)c(I)c(C(=O)NCCO)c2I)CC(=O)Nc2c(I)c(C(=O)NCCO)c(I)c(C(=O)NCCO)c2I)c1I [Compound 33, 2,4,6-triiodo-3-N-methylcarbamyl-5-bis{[2,4,6-triiodo-3,5,-bis(N-hydroxyethylcarbamyl)-phenyl]carbamylmethyl}amino-N-methylacetamido-benzoic acid] |  | 370 mosm/kg |  |  |  | Peripheral vasodilatation, femoral rate of flow (femoral artery; 1.5 ml into collateral of femoral artery, 38% I, Na salt): ++; Death rate (rats; 56 mg I per rat): 0/10; Acute toxicity in mice, i.v. (mice; 38% I, Na salt): 17 grams I/kg
12 | CNC(=O)c1c(I)c(NC(C)=O)c(I)c(C(=O)O)c1I [a, 2,4,6-Triiodo-3-N-methylcarbamyl-5-acetamido-benzoic acid, reference compound] |  | 1410 mosm/kg | +++ | 5.4 grams I/kg |  | Biliary clearance in cat, i.v. ([3]; in vivo, iv): 0
13 | CC(=O)Nc1c(I)c(C(=O)O)c(I)c(C(=O)NCCO)c1I [b, 2,4,6-Triiodo-3-N-hydroxyethylcarbamyl-5-acetamido-benzoic acid, reference compound] |  | 1390 mosm/kg |  |  |  | Peripheral vasodilatation, femoral rate of flow (femoral artery; 1.5 ml into collateral of femoral artery, 30% I, Mgl salt): +++; Acute toxicity in mice, i.v. (mice; 30% I, Mgl salt): 5.6 grams I/kg; Biliary clearance in cat, i.v. ([3]; i.v., 0.10 g I/kg, 30% I, Mgl salt): 0
14 | CNC(=O)c1c(I)c(NC(=O)CCCCC(=O)Nc2c(I)c(C(=O)O)c(I)c(C(=O)NC)c2I)c(I)c(C(=O)O)c1I [c, 5,5'-Adipoyldiimido-bis-(2,4,6-triiodo-N-methylisophthalamic)acid, reference compound] |  | 950 mosm/kg | ++ | 6.2 grams I/kg | 0 | Death rate (rats; 17 mg I per rat): 9/10
